# Measured values published in ChEMBL document CHEMBL4376823, “The discovery of a potent and selective third-generation EGFR kinase inhibitor as a therapy for EGFR L858R/T790M double mutant non-small cell lung cancer” (Eur J Med Chem, 2019).
# Columns and labels:
# [1] = biological target: Epidermal growth factor receptor (Homo sapiens, UniProt P00533, L858R/T790M); test: Inhibition of recombinant human GST-tagged EGFR T790M/L858R mutant expressed in baculovirus expression system using Tyr 04 as substrate incubated for 1 hr by Z'-LYTE assay
# Epidermal growth factor receptor (Homo sapiens, UniProt P00533, L858R/T790M), sequence (P00533 25-1210 T790M/L858R limits assumed): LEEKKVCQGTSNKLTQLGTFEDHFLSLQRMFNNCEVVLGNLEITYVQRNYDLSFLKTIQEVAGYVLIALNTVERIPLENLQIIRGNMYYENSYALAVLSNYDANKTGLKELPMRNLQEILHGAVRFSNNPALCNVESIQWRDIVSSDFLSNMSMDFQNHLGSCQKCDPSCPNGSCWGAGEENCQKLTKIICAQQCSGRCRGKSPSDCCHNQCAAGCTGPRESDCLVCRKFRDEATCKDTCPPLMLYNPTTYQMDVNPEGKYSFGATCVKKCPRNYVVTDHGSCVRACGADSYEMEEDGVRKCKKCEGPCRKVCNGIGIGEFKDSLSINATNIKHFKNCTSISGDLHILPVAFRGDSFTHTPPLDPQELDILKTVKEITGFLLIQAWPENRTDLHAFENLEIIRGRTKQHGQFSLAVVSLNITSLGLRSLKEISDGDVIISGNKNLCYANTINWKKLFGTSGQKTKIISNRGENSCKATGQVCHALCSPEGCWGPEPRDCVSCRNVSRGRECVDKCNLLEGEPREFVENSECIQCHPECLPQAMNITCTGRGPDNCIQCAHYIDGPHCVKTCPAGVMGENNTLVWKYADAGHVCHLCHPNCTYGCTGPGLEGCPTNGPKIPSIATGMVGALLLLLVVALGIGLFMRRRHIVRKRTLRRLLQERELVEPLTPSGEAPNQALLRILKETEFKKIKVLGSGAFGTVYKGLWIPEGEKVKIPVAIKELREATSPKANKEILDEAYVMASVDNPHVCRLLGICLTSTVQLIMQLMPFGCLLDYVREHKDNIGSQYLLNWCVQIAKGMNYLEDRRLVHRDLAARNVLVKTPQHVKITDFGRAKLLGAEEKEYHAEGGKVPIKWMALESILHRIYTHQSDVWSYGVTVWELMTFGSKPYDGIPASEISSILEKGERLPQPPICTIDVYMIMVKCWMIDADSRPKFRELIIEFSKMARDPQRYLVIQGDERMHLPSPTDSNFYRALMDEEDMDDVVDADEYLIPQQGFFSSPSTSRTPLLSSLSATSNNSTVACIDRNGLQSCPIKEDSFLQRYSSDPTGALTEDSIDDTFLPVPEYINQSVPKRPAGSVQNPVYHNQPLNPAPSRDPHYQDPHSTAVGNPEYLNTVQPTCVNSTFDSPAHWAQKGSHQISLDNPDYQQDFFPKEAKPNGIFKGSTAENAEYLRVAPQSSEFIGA
# [2] = biological target: Epidermal growth factor receptor (Homo sapiens, UniProt P00533, L858R); test: Inhibition of recombinant human GST-tagged EGFR L858R mutant expressed in baculovirus expression system using Tyr 04 as substrate incubated for 1 hr by Z'-LYTE assay
# Epidermal growth factor receptor (Homo sapiens, UniProt P00533, L858R), sequence (P00533 25-1210 L858R limits assumed): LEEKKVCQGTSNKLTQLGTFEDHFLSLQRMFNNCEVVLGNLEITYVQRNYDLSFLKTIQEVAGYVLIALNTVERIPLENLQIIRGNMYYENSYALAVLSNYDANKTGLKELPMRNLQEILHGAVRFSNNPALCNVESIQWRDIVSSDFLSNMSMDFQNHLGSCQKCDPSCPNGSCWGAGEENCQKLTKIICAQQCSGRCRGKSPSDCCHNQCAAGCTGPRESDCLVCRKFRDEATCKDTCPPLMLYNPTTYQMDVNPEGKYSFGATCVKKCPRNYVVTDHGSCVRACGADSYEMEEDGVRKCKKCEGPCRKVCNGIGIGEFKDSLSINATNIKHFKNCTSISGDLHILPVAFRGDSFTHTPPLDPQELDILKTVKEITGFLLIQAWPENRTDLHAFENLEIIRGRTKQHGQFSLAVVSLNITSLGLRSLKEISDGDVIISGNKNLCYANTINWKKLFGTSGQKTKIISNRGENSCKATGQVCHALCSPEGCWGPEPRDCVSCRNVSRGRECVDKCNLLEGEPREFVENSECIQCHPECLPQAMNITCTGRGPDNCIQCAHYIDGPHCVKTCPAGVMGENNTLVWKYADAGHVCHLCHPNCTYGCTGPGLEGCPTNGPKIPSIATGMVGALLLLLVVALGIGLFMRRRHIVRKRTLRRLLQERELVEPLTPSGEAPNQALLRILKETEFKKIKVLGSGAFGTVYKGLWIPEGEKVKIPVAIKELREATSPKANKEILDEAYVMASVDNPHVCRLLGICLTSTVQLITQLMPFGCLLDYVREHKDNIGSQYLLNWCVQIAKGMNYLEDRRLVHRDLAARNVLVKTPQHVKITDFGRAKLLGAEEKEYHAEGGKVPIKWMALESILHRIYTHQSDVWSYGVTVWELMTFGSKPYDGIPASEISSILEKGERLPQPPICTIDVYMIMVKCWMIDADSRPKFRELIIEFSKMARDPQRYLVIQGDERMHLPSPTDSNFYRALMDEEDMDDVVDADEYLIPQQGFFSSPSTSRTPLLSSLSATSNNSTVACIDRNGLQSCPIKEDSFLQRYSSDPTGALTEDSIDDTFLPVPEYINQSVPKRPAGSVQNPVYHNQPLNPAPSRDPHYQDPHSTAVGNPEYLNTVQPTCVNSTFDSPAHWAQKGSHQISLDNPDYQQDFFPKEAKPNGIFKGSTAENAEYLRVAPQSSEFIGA
# [3] = biological target: Epidermal growth factor receptor (Homo sapiens, UniProt P00533); test: Inhibition of recombinant human GST-tagged EGFR (668 to 1210 residues) expressed in baculovirus expression system using Tyr 04 as substrate incubated for 1 hr by Z'-LYTE assay
# Epidermal growth factor receptor (Homo sapiens, UniProt P00533), sequence (P00533 whole entry, the tested form may be a part): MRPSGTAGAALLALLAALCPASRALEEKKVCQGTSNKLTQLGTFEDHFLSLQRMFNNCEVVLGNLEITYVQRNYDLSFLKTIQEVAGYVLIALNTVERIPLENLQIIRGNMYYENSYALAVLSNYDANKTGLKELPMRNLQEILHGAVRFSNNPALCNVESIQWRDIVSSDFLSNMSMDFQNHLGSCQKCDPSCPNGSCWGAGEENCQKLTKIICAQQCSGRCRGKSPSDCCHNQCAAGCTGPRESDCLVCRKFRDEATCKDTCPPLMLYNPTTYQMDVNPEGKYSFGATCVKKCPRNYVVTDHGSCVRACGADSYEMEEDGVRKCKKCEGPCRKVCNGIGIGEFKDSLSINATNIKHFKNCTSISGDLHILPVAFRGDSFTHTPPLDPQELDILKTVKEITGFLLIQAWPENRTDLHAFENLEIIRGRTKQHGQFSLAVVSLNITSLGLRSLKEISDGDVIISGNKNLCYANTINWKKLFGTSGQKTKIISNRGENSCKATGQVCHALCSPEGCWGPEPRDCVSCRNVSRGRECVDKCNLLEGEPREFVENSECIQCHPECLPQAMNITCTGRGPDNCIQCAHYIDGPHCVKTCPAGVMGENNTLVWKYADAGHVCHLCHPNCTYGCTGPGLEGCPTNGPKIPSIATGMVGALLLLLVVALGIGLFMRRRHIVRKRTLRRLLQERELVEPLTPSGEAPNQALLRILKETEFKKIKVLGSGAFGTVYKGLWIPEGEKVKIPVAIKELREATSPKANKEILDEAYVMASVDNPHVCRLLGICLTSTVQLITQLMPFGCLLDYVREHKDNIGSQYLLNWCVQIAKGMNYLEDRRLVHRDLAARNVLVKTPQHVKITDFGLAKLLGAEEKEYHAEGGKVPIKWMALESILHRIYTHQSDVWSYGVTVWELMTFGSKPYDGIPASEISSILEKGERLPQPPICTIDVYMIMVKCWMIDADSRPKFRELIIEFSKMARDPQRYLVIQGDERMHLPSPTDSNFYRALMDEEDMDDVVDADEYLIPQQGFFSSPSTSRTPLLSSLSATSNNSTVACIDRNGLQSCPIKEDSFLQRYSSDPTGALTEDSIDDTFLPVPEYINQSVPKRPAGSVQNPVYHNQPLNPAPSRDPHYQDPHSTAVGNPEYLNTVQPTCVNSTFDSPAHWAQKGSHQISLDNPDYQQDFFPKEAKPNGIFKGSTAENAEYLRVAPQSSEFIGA
# NCI-H1975 [4] = test: Antiproliferative activity against human NCI-H1975 cells expressing EGFR T790M/L858R mutant assessed as reduction in cell viability incubated for 72 hrs by MTT assay; format: functional, cell-based
# PC-9 = test: Antiproliferative activity against human PC9 cells expressing EGFR L858R mutant assessed as reduction in cell viability incubated for 72 hrs by MTT assay; format: functional, cell-based
# NCI-H292 = test: Antiproliferative activity against human NCI-H292 cells expressing EGFR assessed as reduction in cell viability incubated for 72 hrs by MTT assay; format: functional, cell-based
# NCI-H1975 [5] = test: Antitumor activity against human NCI-H1975 cells xenografted in BALB/c mouse assessed as tumor volume at 20 mg/kg, ig for one week (reference value: 835.52 mm3); format: functional
# NCI-H1975 [6] = test: Antitumor activity against human NCI-H1975 cells xenografted in BALB/c mouse assessed as tumor growth inhibition at 20 mg/kg, ig for one week; format: functional
# [7] = Toxicity in BALB/c mouse xenografted with human NCI-H1975 cells assessed as mortality at 10 to 20 mg/kg, ig for one week; format: organism-based; settings: in vivo, po
# [8] = Toxicity in BALB/c mouse xenografted with human NCI-H1975 cells assessed as body weight at 20 mg/kg, ig for one week (reference value: 1.6 g); format: organism-based; settings: in vivo, po
# L02 [9] = test: Cytotoxicity against human LO2 cells expressing EGFR assessed as reduction in cell viability incubated for 72 hrs by MTT assay; format: cell-based; settings: L02, 72 h
# HK-2 [10] = test: Cytotoxicity against human HK2 cells expressing EGFR assessed as reduction in cell viability incubated for 72 hrs by MTT assay; format: cell-based; settings: HK-2, 72 h
# BJ = test: Cytotoxicity against human BJ cells expressing EGFR assessed as reduction in cell viability incubated for 72 hrs by MTT assay; format: cell-based
# [11] = Cytotoxicity against human HLF cells expressing EGFR assessed as reduction in cell viability incubated for 72 hrs by MTT assay; format: cell-based
# [12] = Cytotoxicity against human HEK293A cells expressing EGFR assessed as reduction in cell viability incubated for 72 hrs by MTT assay; format: cell-based, HEK293-A
# [13] = Selectivity index, ratio of IC50 for human LO2 cells to IC50 for human NCI-H1975 cells expressing EGFR T790M/L858R mutant; format: toxicity
# [14] = Selectivity index, ratio of IC50 for human HK2 cells to IC50 for human NCI-H1975 cells expressing EGFR T790M/L858R mutant
# [15] = Selectivity index, ratio of IC50 for human BJ cells to IC50 for human NCI-H1975 cells expressing EGFR T790M/L858R mutant; format: toxicity
# [16] = Selectivity index, ratio of IC50 for human HLF cells to IC50 for human NCI-H1975 cells expressing EGFR T790M/L858R mutant
# [17] = Selectivity index, ratio of IC50 for human HEK293A cells to IC50 for human NCI-H1975 cells expressing EGFR T790M/L858R mutant; format: toxicity
# L02 [18] = test: Cytotoxicity against human LO2 cells assessed as change in cell morphology at 5 and 10 uM incubated for 48 hrs by microscopic analysis; format: cell-based; settings: l02, 48 h
# HK-2 [19] = test: Cytotoxicity against human HK2 cells assessed as change in cell morphology at 5 and 10 uM incubated for 48 hrs by microscopic analysis; format: cell-based; settings: hk-2, 48 h
# [20] = Cytotoxicity against human HEK293A cells assessed as change in cell morphology at 5 and 10 uM incubated for 48 hrs by microscopic analysis; format: cell-based; settings: hek293-a
# NCI-H1975 [21] = test: Antitumor activity against human NCI-H1975 cells xenografted in BALB/c mouse assessed as tumor volume at 10 mg/kg, ig for one week (reference value: 835.52 mm3); format: functional
# NCI-H1975 [22] = test: Antitumor activity against human NCI-H1975 cells xenografted in BALB/c mouse assessed as tumor growth inhibition at 10 mg/kg, ig for one week; format: functional
# [23] = Toxicity in BALB/c mouse xenografted with human NCI-H1975 cells assessed as body weight at 10 mg/kg, ig for one week (reference value: 1.6 g); format: organism-based; settings: in vivo, po
# NCI-H1975 [24] = test: Antitumor activity against human NCI-H1975 cells xenografted in ig dosed BALB/c mouse assessed as tumor growth inhibition for one week; format: functional, organism-based
# NCI-H1975 [25] = test: Inhibition of cell migration in human NCI-H1975 cells at 25 nM incubated for 24 hrs by phase contrast microscopy relative to control; format: functional
# [26] = Mus musculus, NCI-H1975, po, 168 h, read-out: TGI
Structure (SMILES),IC50 [1],IC50 [2],IC50 [3],"IC50 (NCI-H1975 [4]; Homo sapiens, NCI-H1975, 72 h)","IC50 (PC-9; Homo sapiens, PC-9, 72 h)","IC50 (NCI-H292; Homo sapiens, NCI-H292, 72 h)",also measured
C=CC(=O)Nc1cc(Nc2nccc(-c3cn(C)c4ccccc34)n2)c(OC)cc1N(C)CC[S+](C)[O-] (stereo not given),105 nM,475 nM,1740 nM,1210 nM,1490 nM,13900 nM,–
C=CC(=O)Nc1cc(Nc2nccc(-c3cn(C)c4ccccc34)n2)c(OC)cc1N(C)CCCl,122 nM,421 nM,1980 nM,654 nM,1100 nM,12100 nM,–
C=CC(=O)Nc1cc(Nc2nccc(-c3cn(C)c4ccccc34)n2)c(OC)cc1N1CCS(=O)(=O)CC1,38 nM,46 nM,339 nM,96 nM,101 nM,3720 nM,–
C=CC(=O)Nc1cc(Nc2nccc(-c3cn(C)c4ccccc34)n2)c(OC)cc1N1CC[S+]([O-])CC1,75 nM,65 nM,421 nM,106 nM,177 nM,8360 nM,–
C=CC(=O)Nc1cc(Nc2nccc(-c3cn(C)c4ccccc34)n2)c(OC)cc1N1CCSCC1,64 nM,79 nM,522 nM,399 nM,308 nM,19300 nM,–
C=CC(=O)Nc1cc(Nc2nccc(-c3cn(C)c4ccccc34)n2)c(OC)cc1N(C)CCO,–,–,–,184 nM,137 nM,8320 nM,–
C=CC(=O)Nc1cc(Nc2nccc(-c3cn(C)c4ccccc34)n2)c(OC)cc1N(C)CCN(C)C.O=S(=O)(O)O,–,–,–,–,–,–,Activity (NCI-H1975 [5]): 18.23 mm3; TGI (NCI-H1975 [6]): 98.49%; Activity [7]: Non-Toxic; Activity [8]: 1.9 g
C=CC(=O)Nc1cc(Nc2nccc(-c3cn(C)c4ccccc34)n2)c(OC)cc1N(C)CCSC,215 nM,308 nM,1430 nM,2800 nM,3900 nM,17900 nM,–
C=CC(=O)Nc1cc(Nc2nccc(-c3cn(C)c4ccccc34)n2)c(OC)cc1SCCN(C)C,11 nM,14 nM,329 nM,49 nM,44 nM,1040 nM,–
C=CC(=O)Nc1cc(Nc2nccc(-c3cn(C)c4ccccc34)n2)c(OC)cc1S(=O)(=O)CCN(C)C,–,–,–,992 nM,2280 nM,6420 nM,–
C=CC(=O)Nc1cc(Nc2nccc(-c3cn(C)c4ccccc34)n2)c(OC)cc1[S+]([O-])CCN(C)C (racemic),5 nM,7 nM,239 nM,13 nM,17 nM,1050 nM,"IC50 (L02 [9]): > 10000 nM; IC50 (HK-2 [10]): > 10000 nM; IC50 (BJ): > 10000 nM; IC50 ([11]; Homo sapiens, HLF, 72 h): 9310 nM; IC50 ([12]; hek293-a): 4190 nM; selectivity ratio ([13]; read-out: Ratio IC50): > 769; Ratio IC50 [14]: >769; selectivity ratio ([15]; read-out: Ratio IC50): > 769; Ratio IC50 [16]: 715; selectivity ratio ([17]; read-out: Ratio IC50): 322; Activity (L02 [18]): Non-Toxic; Activity (HK-2 [19]): Non-Toxic; Activity [20]: Non-Toxic"
"C=CC(=O)Nc1cc(Nc2nccc(-c3cn(C)c4ccccc34)n2)c(OC)cc1[S+]([O-])CCN(C)C.O=S(=O)(O)O (single isomer, unassigned; (+))",–,–,–,–,–,–,Activity (NCI-H1975 [21]): 141.5 mm3; Activity (NCI-H1975 [5]): 117.87 mm3; TGI (NCI-H1975 [22]): 81.82%; TGI (NCI-H1975 [6]): 85.41%; Activity [23]: 2.1 g; Activity [8]: 2.1 g
"C=CC(=O)Nc1cc(Nc2nccc(-c3cn(C)c4ccccc34)n2)c(OC)cc1[S+]([O-])CCN(C)C (single isomer, unassigned; (+))",–,–,–,–,–,–,TGI (NCI-H1975 [24]): Dose-dependent effect
"C=CC(=O)Nc1cc(Nc2nccc(-c3cn(C)c4ccccc34)n2)c(OC)cc1[S+]([O-])CCN(C)C.O=S(=O)(O)O (single isomer, unassigned; (-))",–,–,–,–,–,–,Activity (NCI-H1975 [21]): 106.81 mm3; Activity (NCI-H1975 [5]): 48.23 mm3; inhibition in vivo at 10 mg/kg (NCI-H1975 [22]; [26]): 87.6%; inhibition in vivo at 20 mg/kg (NCI-H1975 [6]; [26]): 94.3%; Activity [7]: Non-Toxic; Activity [23]: 1.6 g; Activity [8]: 2.4 g
C=CC(=O)Nc1cc(Nc2nccc(-c3cn(C)c4ccccc34)n2)c(OC)cc1[S+]([O-])CCN(C)C (stereo in doubt; (+)-4i),5 nM,6 nM,318 nM,–,–,–,IC50 (NCI-H1975 [4]; nci-h1975): 16 nM; IC50 (PC-9; pc-9): 18 nM; IC50 (NCI-H292; nci-h292): 1340 nM; IC50 [11]: 9720 nM; IC50 ([12]; hek293-a): 3730 nM; Ratio IC50 [13]: > 625; Ratio IC50 [14]: >625; Ratio IC50 [15]: > 625; Ratio IC50 [16]: 233; Ratio IC50 [17]: 233
C=CC(=O)Nc1cc(Nc2nccc(-c3cn(C)c4ccccc34)n2)c(OC)cc1N(C)CCN(C)C [OSIMERTINIB],–,–,–,[…],[…],1080 nM,"IC50 (L02 [9]): […]; IC50 (HK-2 [10]): 3560 nM; IC50 (BJ): > 10000 nM; IC50 ([11]; Homo sapiens, HLF, 72 h): 8740 nM; IC50 ([12]; Homo sapiens, HEK293-A, 72 h): 2420 nM; Activity (L02 [18]): Toxic; Activity (HK-2 [19]): Toxic; Activity [20]: Toxic; inhibition (INH) (NCI-H1975 [25]): 60.54%"
